Values quoted from earlier work as cited in patent publication US8415362B2, “Pyrazolyl substituted pyrrolo[2,3-b]pyrimidines as Janus kinase inhibitors” (Incyte Corporation, priority 2005, dated 2013).
Blank lines part the entries; values can stand above or below the compound they belong to.

Tests used:
JAK3 = target: T1, JAK3 (Mus musculus, UniProt Q62137)
T1 construct: host or cells: NOD mouse (in vivo)
T1 sequence (Q62137 1-1100): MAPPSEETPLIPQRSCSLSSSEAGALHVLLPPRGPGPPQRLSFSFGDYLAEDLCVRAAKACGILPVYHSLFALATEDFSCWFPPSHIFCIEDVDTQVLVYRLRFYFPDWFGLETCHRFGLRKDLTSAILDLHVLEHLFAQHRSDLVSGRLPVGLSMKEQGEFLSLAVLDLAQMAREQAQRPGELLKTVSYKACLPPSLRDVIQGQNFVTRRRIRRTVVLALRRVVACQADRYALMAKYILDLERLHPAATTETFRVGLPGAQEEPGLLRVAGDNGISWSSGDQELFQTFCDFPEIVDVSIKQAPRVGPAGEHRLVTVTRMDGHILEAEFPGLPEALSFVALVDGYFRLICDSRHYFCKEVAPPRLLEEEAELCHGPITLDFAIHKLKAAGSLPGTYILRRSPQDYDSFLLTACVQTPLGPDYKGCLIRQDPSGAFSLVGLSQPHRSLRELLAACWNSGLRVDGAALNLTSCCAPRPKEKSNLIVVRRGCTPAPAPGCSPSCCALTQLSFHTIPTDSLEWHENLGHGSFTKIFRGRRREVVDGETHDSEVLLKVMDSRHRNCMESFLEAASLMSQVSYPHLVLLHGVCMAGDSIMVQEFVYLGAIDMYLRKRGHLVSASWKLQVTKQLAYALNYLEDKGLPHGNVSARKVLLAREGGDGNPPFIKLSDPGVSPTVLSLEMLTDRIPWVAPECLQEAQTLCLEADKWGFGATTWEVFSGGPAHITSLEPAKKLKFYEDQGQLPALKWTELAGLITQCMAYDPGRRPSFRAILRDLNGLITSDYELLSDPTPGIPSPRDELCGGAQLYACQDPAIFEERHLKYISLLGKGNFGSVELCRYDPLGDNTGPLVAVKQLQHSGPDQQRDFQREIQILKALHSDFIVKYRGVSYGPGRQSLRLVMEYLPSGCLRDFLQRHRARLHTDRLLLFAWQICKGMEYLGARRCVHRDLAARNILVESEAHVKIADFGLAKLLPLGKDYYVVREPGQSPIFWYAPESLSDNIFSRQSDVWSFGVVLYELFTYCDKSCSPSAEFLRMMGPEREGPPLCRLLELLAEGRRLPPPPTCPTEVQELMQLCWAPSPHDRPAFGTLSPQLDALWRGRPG

[1] = some patients
[2] = test system: myeloid dendritic cells (DCs); conditions: DCs arrested at an immature level
[3] = test system: IL-6-dependent MM cell lines

onset of diabetes (JAK3; NOD mouse model of autoimmune type I diabetes): delayed the onset of diabetes
immunomodulatory activity (JAK3; mouse, in vivo): potent immunomodulatory activity
Structure (SMILES): COc1cc2ncnc(Nc3ccc(O)cc3)c2cc1OC [JANEX-1]

acneiform rash [1]: induced acneiform rash
Structure (SMILES): C#Cc1cccc(Nc2ncnc3cc(OCCOC)c(OCCOC)cc23)c1 [Tarceva]

Structure (SMILES): COc1cc2ncnc(Nc3ccc(O)c(Br)c3)c2cc1OC [WHI-P-154]
CD40-induced effects (JAK3 activity, costimulatory molecule expression, IL-12 production, allogeneic stimulatory capacity) [2]: prevented these effects

Structure (SMILES): N#C/C(=C\c1ccc(O)c(O)c1)C(=O)NCc1ccccc1 [tyrphostin AG490]
ERK2 and STAT3 phosphorylation ([3]; IL-6-dependent MM cell lines): inhibited
JAK2 kinase activity ([3]; IL-6-dependent MM cell lines): inhibited
apoptosis ([3]; IL-6-dependent MM cell lines): induced
cell proliferation ([3]; IL-6-dependent MM cell lines): suppressed
dormancy of tumor cells ([3]; in some cases, then protects the tumor cells from death): induce dormancy of tumor cells
